Patent publication US20260297042A1, “BIARYLAMIDE DERIVATIVES AND THEIR USE AS PKMYT1 INHIBITORS” (CANCER RESEARCH TECHNOLOGY LIMITED, priority 2023, published 2026)

Experiments:
[1] = target: T1, Human PKMYT1 (Homo sapiens, UniProt Q99640); test: PKMYT1 biochemical ADP-Glo enzymatic assay; conditions: ADP-Glo
T1 construct: Human PKMYT1 75-362 was cloned as a TEV cleavable 6xHis fusion; 6xHis (TEV cleavable) (cleaved yes); made in house; host or cells: bacterial cells
T1 sequence (Q99640 75-362): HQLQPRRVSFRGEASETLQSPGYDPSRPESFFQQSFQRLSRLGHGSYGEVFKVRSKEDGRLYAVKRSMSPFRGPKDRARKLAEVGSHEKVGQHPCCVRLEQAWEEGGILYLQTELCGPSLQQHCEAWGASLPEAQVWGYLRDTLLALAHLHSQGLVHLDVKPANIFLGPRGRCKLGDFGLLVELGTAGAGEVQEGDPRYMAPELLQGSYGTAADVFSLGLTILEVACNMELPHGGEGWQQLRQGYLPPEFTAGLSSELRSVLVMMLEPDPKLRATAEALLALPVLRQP
How it was run: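 Luminescent ADP-Glo Max read-out of ADP produced by 15 nM PKMYT1 (residues 75-362, bacterial, His-tag removed) from 500 µM ATP without peptide substrate. Reaction: 50 mM HEPES pH 7.5, 10 mM MgCl2, 1 mM EGTA, 0.01% Brij-35, 60 min, 26 °C. IC50 values fitted from 10-point curves.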

[2] = target: T2, WEE1 (Homo sapiens, UniProt P30291); test: Selectivity versus WEE1 assay (ADP-Glo enzymatic assay); type: biochemical; conditions: for IC50: ADP-Glo; for PKMYT1 vs. WEE1 selectivity: fold difference in selectivity for PKMYT1 over WEE1
T2 construct: purchased Thermo Fisher PR7373A
How it was run: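 ADP-Glo luminescence read-out after a 60 min reaction at 26° C, initiated by 30 µM ATP, with 15 nM enzyme in HEPES pH 7.5/MgCl2/EGTA/Brij-35 buffer containing 1% DMSO. Replicate IC50 values had to agree within 3-fold and fits needed r2 >0.9.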

[3] = tested on: OVCAR 3 cells; test: Cancer cell line proliferation assay, ATP-based cell viability (Cell Titre Glow), OVCAR 3 (CCNE1-amplified); conditions: KYSE30 (normal CCNE1) GI50 vs. OVCAR 3 (CCNE1-amplified) GI50
How it was run: (§1)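 Sensitivity to PKMYT1 inhibitors was measured by ATP-based luminescence (CellTiter-Glo) as the proliferation endpoint. GI50, the concentration giving 50% growth inhibition, was estimated from curve fits.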

[4] = tested on: KYSE-30 cells; test: Cancer cell line proliferation assay, ATP-based cell viability (Cell Titre Glow), KYSE-30 (normal CCNE1); conditions: Homo sapiens, KYSE-30 cells (normal CCNE1), concentration that achieves 50% cell growth proliferation inhibition, read-out: KYSE30 Gl50
How it was run: as §1

[5] = target: T3, Cellular PKMYT1 Biomarker CDK1 pT14 (Homo sapiens, UniProt Q99640); test: Inhibition of cellular PKMYT1 biomarker CDK1 pT14 in OVCAR 3 cells (immunoblot); type: cell-based; conditions: 20 hours incubation
T3 construct: read-out CDK1 phospho-T14 immunoblot
T3 sequence (Q99640 1-499): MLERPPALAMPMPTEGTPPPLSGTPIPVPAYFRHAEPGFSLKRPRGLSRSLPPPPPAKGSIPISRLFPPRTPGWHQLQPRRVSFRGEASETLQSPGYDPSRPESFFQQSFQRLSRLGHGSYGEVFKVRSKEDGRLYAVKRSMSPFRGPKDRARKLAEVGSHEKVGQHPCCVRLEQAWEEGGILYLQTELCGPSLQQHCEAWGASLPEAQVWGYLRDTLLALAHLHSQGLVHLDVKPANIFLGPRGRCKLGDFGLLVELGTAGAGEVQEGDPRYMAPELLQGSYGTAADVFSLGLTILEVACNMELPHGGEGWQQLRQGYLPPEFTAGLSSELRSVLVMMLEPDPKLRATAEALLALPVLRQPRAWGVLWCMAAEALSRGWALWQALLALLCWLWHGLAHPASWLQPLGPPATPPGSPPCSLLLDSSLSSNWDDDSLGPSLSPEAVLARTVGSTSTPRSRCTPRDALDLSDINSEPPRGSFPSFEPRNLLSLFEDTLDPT
How it was run: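 Confluent OVCAR 3 cells treated with a compound concentration range for 20 h at 37 °C. Lysates analysed by automated capillary immunoblot for CDK1 phospho-T14, with vinculin, fluorescence detection; IC50 by regression.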

[6] = 15 nM PKMYT1 kinase domain, 500 µM ATP, 60 minutes at 26° C., banded
[7] = 15 nM WEE1, 60 minutes at 26° C., banded
[8] = banded, ">N" = at least in this band but could be higher
[9] = PKMYT1 kinase domain 15 nM, banded values

T2 sequence (P30291 whole entry): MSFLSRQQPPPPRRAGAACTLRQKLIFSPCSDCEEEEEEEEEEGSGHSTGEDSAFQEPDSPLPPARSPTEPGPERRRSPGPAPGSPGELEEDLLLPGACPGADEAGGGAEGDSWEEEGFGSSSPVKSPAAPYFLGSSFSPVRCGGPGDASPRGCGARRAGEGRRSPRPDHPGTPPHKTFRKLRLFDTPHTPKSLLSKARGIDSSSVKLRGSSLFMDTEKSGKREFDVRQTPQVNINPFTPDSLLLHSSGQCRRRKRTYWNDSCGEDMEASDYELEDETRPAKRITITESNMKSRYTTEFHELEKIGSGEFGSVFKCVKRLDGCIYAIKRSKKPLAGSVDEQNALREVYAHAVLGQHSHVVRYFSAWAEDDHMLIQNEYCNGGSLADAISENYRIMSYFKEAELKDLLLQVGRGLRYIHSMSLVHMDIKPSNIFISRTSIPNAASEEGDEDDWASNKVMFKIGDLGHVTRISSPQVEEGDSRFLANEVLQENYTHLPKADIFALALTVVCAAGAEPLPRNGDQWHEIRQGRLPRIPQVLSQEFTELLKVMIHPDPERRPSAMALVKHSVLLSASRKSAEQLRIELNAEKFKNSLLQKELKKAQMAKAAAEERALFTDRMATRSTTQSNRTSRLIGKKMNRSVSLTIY

Row | IC50 [1, 6] [nM] | IC50 [2, 7] [nM] | PKMYT1 vs. WEE1 selectivity [2, 8] | IC50 [5] [nM] | IC50 [1, 9] [nM] | IC50 ([2]; WEE1 15 nM, banded values) [nM] | PKMYT1 vs. WEE1 selectivity ([2]; banded) | Structure (SMILES) | Selectivity ratio KYSE30 Gl50 vs. OVCAR3 Gl50 [3] | GI50 [4] [nM]
1 | < 50 | 1000 to 11000 | X (100-<1000 fold) | < 100 |  |  |  | Cc1cn(-c2cnn(C)c2)nc1Nc1ncc(C(=O)Nc2c(C)ccc(O)c2C)s1 [BAA-385, 2-((1′′,4-dimethyl-1′H-[1,4′-bipyrazol]-3-yl)amino)-N-(3-hydroxy-2,6-dimethylphenyl)thiazole-5-carboxamide] | Y (>20 fold) | 500 to 5000
2 | < 50 | 1000 to 11000 | X (100-<1000 fold) | < 100 |  |  |  | Cc1ccc(O)c(C)c1NC(=O)c1cnc(Nc2cccc(-c3cnn(C)c3)n2)s1 [BAA-390, N-(3-hydroxy-2,6-dimethylphenyl)-2-((6-(1-methyl-1H-pyrazol-4-yl)pyridin-2-yl)amino)thiazole-5-carboxamide] | Y (>20 fold) | 500 to 5000
3 | < 50 | 1000 to 11000 | X (100-<1000 fold) | < 100 |  |  |  | Cc1cn(-c2cnn(C(C)C)c2)nc1Nc1ncc(C(=O)Nc2c(C)ccc(O)c2C)s1 [BAA-391, N-(3-hydroxy-2,6-dimethylphenyl)-2-((1′-isopropyl-4-methyl-1′H-[1,4′-bipyrazol]-3-yl)amino)thiazole-5-carboxamide] | Y (>20 fold) | 500 to 5000
4 |  |  |  | < 100 | < 50 | 1000 to 11000 | X (100-<1000 fold) | Cc1cn(-c2cnn(C(F)F)c2)nc1Nc1ncc(C(=O)Nc2c(C)ccc(O)c2C)s1 [BAA-394, 2-((1′-(difluoromethyl)-4-methyl-1′H-[1,4′-bipyrazol]-3-yl)amino)-N-(3-hydroxy-2,6-dimethylphenyl)thiazole-5-carboxamide] | Y (>20 fold) | 500 to 5000
5 |  |  |  | < 100 | < 50 | 1000 to 11000 | X (100-<1000 fold) | Cc1ccc(-c2cnn(C)c2)nc1Nc1ncc(C(=O)Nc2c(C)ccc(O)c2C)s1 [BAA-396, N-(3-hydroxy-2,6-dimethylphenyl)-2-((3-methyl-6-(1-methyl-1H-pyrazol-4-yl)pyridin-2-yl)amino)thiazole-5-carboxamide] | Y (>20 fold) | 500 to 5000
6 |  |  |  | < 100 | < 50 | 1000 to 11000 | W (10-<100 fold) | Cc1ccc(O)c(C)c1NC(=O)c1cnc(Nc2cccc(-c3cccnc3)n2)s1 [BAA-397, 2-([2,3′-bipyridin]-6-ylamino)-N-(3-hydroxy-2,6-dimethylphenyl)thiazole-5-carboxamide] | Y (>20 fold) | 500 to 5000
7 |  |  |  | < 100 | < 50 | 1000 to 11000 | X (100-<1000 fold) | Cc1cn(-c2ccn(C)n2)nc1Nc1ncc(C(=O)Nc2c(C)ccc(O)c2C)s1 [BAA-398, 2-((1′,4-dimethyl-1′H-[1,3′-bipyrazol]-3-yl)amino)-N-(3-hydroxy-2,6-dimethylphenyl)thiazole-5-carboxamide] | Y (>20 fold) | 500 to 5000

Second part, the molecule before the results:

Row | Structure (SMILES) | IC50 [1, 6] [nM] | IC50 [2, 7] [nM] | PKMYT1 vs. WEE1 selectivity [2, 8] | IC50 [5] [nM] | IC50 [1, 9] [nM] | IC50 ([2]; WEE1 15 nM, banded values) [nM] | PKMYT1 vs. WEE1 selectivity ([2]; banded) | Selectivity ratio KYSE30 Gl50 vs. OVCAR3 Gl50 [3] | GI50 [4] [nM]
8 | Cc1cc(Nc2ncc(C(=O)Nc3c(C)ccc(O)c3C)s2)nc(NCCC(C)(C)C)n1 [BAA-338, 2-((2-((3,3-Dimethylbutyl)amino)-6-methylpyrimidin-4-yl)amino)-N-(3-hydroxy-2,6-dimethylphenyl)thiazole-5-carboxamide] | < 50 | 1000 to 11000 | X (100-<1000 fold) | < 100 |  |  |  | Y (>20 fold) | < 500
9 | Cc1ccc(N[S+]([O-])C(C)(C)C)nc1Nc1ncc(C(=O)Nc2c(C)ccc(O)c2C)s1 (stereo not drawn) [BAA-340, 2-((6-((tert-Butylsulfinyl)amino)-3-methylpyridin-2-yl)amino)-N-(3-hydroxy-2,6-dimethylphenyl)thiazole-5-carboxamide] | < 50 | 50 to 1000 | V (3-<10 fold) | 100 to 1000 |  |  |  | Y (>20 fold) | 500 to 5000
10 | Cc1ccc(NC(=O)C(C)(C)O)nc1Nc1ncc(C(=O)Nc2c(C)ccc(O)c2C)s1.Cl [BAA-342, N-(3-Hydroxy-2,6-dimethylphenyl)-2-((6-(2-hydroxy-2-methylpropanamido)-3-methylpyridin-2-yl)amino)thiazole-5-carboxamide hydrochloride] | < 50 | > 11000 | X (100-<1000 fold) | < 100 |  |  |  | Y (>20 fold) | > 5000
11 | Cc1cn(-c2ccccc2)nc1Nc1ncc(C(=O)Nc2c(C)ccc(O)c2C)s1 [BAA-361, N-(3-hydroxy-2,6-dimethylphenyl)-2-((4-methyl-1-phenyl-1H-pyrazol-3-yl)amino)thiazole-5-carboxamide] | < 50 | > 11000 | X (100-<1000 fold) | < 100 |  |  |  | Y (>20 fold) | 500 to 5000
12 | Cc1cn(-c2ccccn2)nc1Nc1ncc(C(=O)Nc2c(C)ccc(O)c2C)s1 [BAA-365, N-(3-hydroxy-2,6-dimethylphenyl)-2-((4-methyl-1-(pyridin-2-yl)-1H-pyrazol-3-yl)amino)thiazole-5-carboxamide] | < 50 | > 11000 | X (100-<1000 fold) | < 100 |  |  |  | Y (>20 fold) | 500 to 5000
13 | Cc1cn(S(=O)(=O)c2ccccc2)nc1Nc1ncc(C(=O)Nc2c(C)ccc(O)c2C)s1 [BAA-379, N-(3-Hydroxy-2,6-dimethylphenyl)-2-((4-methyl-1-(phenylsulfonyl)-1H-pyrazol-3-yl)amino)thiazole-5-carboxamide] | < 50 | > 11000 | X (100-<1000 fold) | < 100 |  |  |  | X (3-20 fold) | > 5000
14 | Cc1cn(CC(=O)N2CC3(CCC3)C2)nc1Nc1ncc(C(=O)Nc2c(C)ccc(O)c2C)s1 [BAA-381, N-(3-hydroxy-2,6-dimethylphenyl)-2-((4-methyl-1-(2-oxo-2-(2-azaspiro[3.3]heptan-2-yl)ethyl)-1H-pyrazol-3-yl)amino)thiazole-5-carboxamide] | < 50 | 1000 to 11000 | X (100-<1000 fold) | < 100 |  |  |  | Y (>20 fold) | > 5000
15 | Cc1cnccc1-n1cc(C)c(Nc2ncc(C(=O)Nc3c(C)ccc(O)c3C)s2)n1 [BAA-384, N-(3-hydroxy-2,6-dimethylphenyl)-2-((4-methyl-1-(3-methylpyridin-4-yl)-1H-pyrazol-3-yl)amino)thiazole-5-carboxamide] | < 50 | 1000 to 11000 | X (100-<1000 fold) | < 100 |  |  |  | Y (>20 fold) | 500 to 5000
